Data published in patent US20060079453A1, “Hla binding peptides and their uses” (priority 2002, published 2006).
Like-named read-outs stand apart in the source and are kept apart here. No end group written: not given here.

Experiments:
Experiment in all cases: biochemical
Assay type in all cases: binding
[1] = biological target: HLA-B*1801 (Homo sapiens, UniProt P01889, A329T/A93T/A95T/C349S/D201E/D54G/D98Y/E176V/E187T/E204Q/E69T/K202T/Q94N/R155S/R180L/S121R/V306I/Y140S/Y195H/Y33H/Y91S)
[2] = biological target: HLA-B*4001 (Homo sapiens, UniProt P01889, A65T/A93T/A95T/D138N/D98Y/E176V/E69K/N87E/Q56L/Q94N/R180L/S121R/S35A/S48T/T167S/V36M/W171L/Y33H/Y91S)
[3] = biological target: HLA-B*4402 (Homo sapiens, UniProt P01889, A223V/A65T/A93T/A95T/D201E/D98Y/E176V/E187L/E204Q/E69K/G107R/H137Y/K202T/L105A/L119I/N104T/N87E/Q56L/Q94N/R106L/R155S/R180D/S101N/S121R/S35A/S48T/T118I/V36M/W191S/Y140D/Y91S)
[4] = biological target: HLA-B*4501 (Homo sapiens, UniProt P01889, A329T/A65T/A93T/A95T/C349S/D138N/D201E/D98Y/E176V/E187L/E204Q/E69K/H137Y/K202T/L119W/N87E/Q56L/Q94N/R155S/R180D/S121R/S35A/S48T/V127L/V306I/V36M/W191S/Y140L/Y33H/Y91S)
[5] = biological target: HLA-B*4002 (Homo sapiens, UniProt P01889, A65T/A93T/A95T/D138N/D201E/D98Y/E176V/E204Q/E69K/K202T/N87E/Q56L/Q94N/R180L/S48T/Y33H/Y91S)
[6] = biological target: HLA-B*4403 (Homo sapiens, UniProt P01889, A223V/A65T/A93T/A95T/D201E/D98Y/E176V/E187L/E204Q/E69K/G107R/H137Y/K202T/L105A/L119I/N104T/N87E/Q56L/Q94N/R106L/R155S/R180L/S101N/S121R/S35A/S48T/T118I/V36M/W191S/Y140D/Y91S); conditions: B*4403
[7] = biological target: HLA-DR DRB1*0101 (DR1) (Homo sapiens, UniProt P01903+P01911, A100R/D57E/F55L/F60I/F76Y/I96L/L162R/M171V/P40L/Q125E/R42F/V115G/Y59C); conditions: DRB1 *0101
[8] = biological target: HLA-DR DRB1*0301 (DR3) (Homo sapiens, UniProt P01903+P01911, A100K/A102G/A103R/A169T/F55Y/I96L/K41T/L162R/M171V/P40S/Q125H/Q178H/Q39Y/R42S/S66N/T106N/T262R/W38E/Y61H)
[9] = biological target: HLA-DR DRB1*0401 (DR4) (Homo sapiens, UniProt P01903+P01911, A100K/A169T/F76Y/I96L/K127E/L162R/M171V/N62H/P40V/Q125Y/R42H/S133A/S149N/S66Y/V115G/V209L/W38E); conditions: DRB1 *0401
[10] = biological target: HLA-DR DRB1*0405 (DR4) (Homo sapiens, UniProt P01903+P01911, A100R/A169T/D86S/F76Y/I96L/K127E/L162R/M171V/N62H/P40V/Q125Y/R42H/S133A/S149N/S66Y/V115G/V209L/W38E); conditions: DRB1 *0405
[11] = biological target: HLA-DR DRB1*0701 (DR7) (Homo sapiens, UniProt P01903+P01911, A100R/A102G/A103Q/D57E/D86V/E43K/F76Y/K127E/L162R/M171V/P40G/Q125H/Q99D/R33Q/R42Y/R54Q/S133A/S66F/T210M/V115G/Y107V/Y59L/Y89S); conditions: DRB1 *0701
[12] = biological target: HLA-DR DRB1*0802 (DR8) (Homo sapiens, UniProt P01903+P01911, A100R/A103L/A169T/F76Y/H45Y/I96F/K41T/L162R/M171V/P40S/Q125H/Q178H/Q39Y/Q99D/R218S/R42G/S66Y/V115G/W38E)
[13] = biological target: HLA-DR DRB1*0901 (DR9) (Homo sapiens, UniProt P01903+P01911, A100R/A103E/D57H/D86V/F55Y/F60I/F76Y/I96F/K127E/L162R/M171V/P40D/Q125H/Q99R/R33Q/R42F/S133A/S66N/T210M/V115G/W38K/Y107V/Y59G/Y89S); conditions: DRB1 *0901
[14] = biological target: HLA-DR DRB1*1101 (DR11) (Homo sapiens, UniProt P01903+P01911, A100R/A169T/A87E/I96F/K41T/L162R/M171V/P40S/Q125H/Q178H/Q39Y/Q99D/R42S/S66Y/T262R/V115G/W38E); conditions: DRB1 *1101
[15] = biological target: HLA-DR DRB1*1302 (DR13) (Homo sapiens, UniProt P01903+P01911, A100E/A169T/K41T/L162R/M171V/P40S/Q125H/Q178H/Q39Y/Q99D/R42S/S66N/T262R/V115G/W38E/Y61H); conditions: DRBI *1302
[16] = biological target: HLA-DR DRB1*1501 (DR15) (Homo sapiens, UniProt P01903+P01911); conditions: DRBI *1501
[17] = biological target: HLA-DR DRB3*0101 (DR52) (Homo sapiens, UniProt P01903+P79483)
[18] = biological target: HLA-DR DRB5*0101 (DR51) (Homo sapiens, UniProt P01903+Q30154); conditions: DRB5 *0101

Chain of HLA-DR DRB1*1302 (DR13) (P01903 26-254 limits assumed, other chains not shown): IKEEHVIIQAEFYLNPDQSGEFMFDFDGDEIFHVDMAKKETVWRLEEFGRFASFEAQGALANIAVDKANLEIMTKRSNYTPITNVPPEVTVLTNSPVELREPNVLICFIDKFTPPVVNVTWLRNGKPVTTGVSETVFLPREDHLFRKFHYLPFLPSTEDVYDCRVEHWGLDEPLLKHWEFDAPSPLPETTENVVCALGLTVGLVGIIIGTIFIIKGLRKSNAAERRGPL
Chain of HLA-DR DRB1*0301 (DR3) (P01903 26-254 limits assumed, other chains not shown): as above
Chain of HLA-DR DRB1*1101 (DR11) (P01903 26-254 limits assumed, other chains not shown): as above

AENLPVTVY
IC50 [1]: 20 nM
IC50 [2]: 205 nM
IC50 [3]: 356 nM
IC50 [4]: 246 nM

CEKCSKPCARV
IC50 ([4]; read-out: B*4501): 1560 nM

QEILDLWVY
IC50 ([1]; B*1801): 52 nM
IC50 ([2]; B*4001): 740 nM
IC50 ([5]; B*4002): 4520 nM
IC50 ([3]; B*4402): 264 nM
IC50 ([4]; B*4501): 6260 nM

AEPAAEGVGAV
IC50 [1]: > 8610 nM
IC50 [2]: 20400 nM
IC50 [3]: > 23900 nM
IC50 [4]: 1500 nM

AENLWVTVG
IC50 [1]: 39700 nM
IC50 [2]: 861 nM
IC50 [5]: 47 nM
IC50 [4]: 35 nM

LWQLNGRLEYTLKDR
IC50 [6]: 0.11 nM
IC50 [7]: 698 nM
IC50 [8]: 511 nM
IC50 [9]: 757 nM
IC50 [10]: 94 nM
IC50 [11]: 20200 nM
IC50 [12]: 43300 nM
IC50 [13]: 16600 nM
IC50 [14]: 6520 nM
IC50 [15]: 2450 nM
IC50 [16]: 853 nM
IC50 [17]: 4400 nM
IC50 [18]: 6000 nM

TENLWVTVY
IC50 ([2]; B*4001): 14000 nM
IC50 ([4]; B*4501): 5300 nM

AENLWVTVV
IC50 [1]: 10700 nM
IC50 [2]: 84 nM
IC50 [5]: 19 nM
IC50 [3]: 5760 nM
IC50 [4]: 35 nM

AENNWVTVY
IC50 [4]: 99 nM

AEKLWVTVY
IC50 [2]: 18300 nM
IC50 [3]: 168 nM
IC50 [4]: 219 nM

IEDPPYNSL
IC50 [1]: 35500 nM
IC50 [2]: 16 nM
IC50 [5]: 688 nM
IC50 [4]: 18700 nM

AEFLWVTVY
IC50 [1]: 131 nM
IC50 [2]: 183 nM
IC50 [5]: 240 nM
IC50 [3]: 1010 nM
IC50 [4]: 472 nM

AENLFVTVY
IC50 [1]: 29 nM
IC50 [2]: 970 nM
IC50 [5]: 334 nM
IC50 [4]: 232 nM

AEPAAEGVGA
IC50 [1]: > 8120 nM
IC50 [2]: 4120 nM
IC50 [3]: > 22600 nM
IC50 [4]: 104 nM

AENLWVTKY
IC50 [1]: 511 nM
IC50 [2]: 1010 nM
IC50 [5]: 2000 nM
IC50 [4]: 201 nM

AENLWVTLY
IC50 [1]: 392 nM
IC50 [5]: 731 nM
IC50 [3]: 199 nM
IC50 [4]: 349 nM

AENLWVTVS
IC50 [1]: 25700 nM
IC50 [3]: 4220 nM
IC50 [4]: 34 nM
